{"source": "patent US6884429B2", "about": "“Medical devices incorporating deuterated rapamycin for controlled delivery thereof” (Isotechnika International Inc., priority 1997, dated 2005)", "origin": "cited, not measured here", "conditions": "plasma and low-, and neuteral -pH buffers at 37° C.", "data": [{"smiles": "CO[C@H]1C[C@@H]2CC[C@@H](C)[C@@](O)(O2)C(=O)C(=O)N2CCCC[C@H]2C(=O)O[C@H]([C@H](C)C[C@@H]2CC[C@@H](O)[C@H](OC)C2)CC(=O)[C@H](C)/C=C(\\C)[C@@H](O)[C@@H](OC)C(=O)[C@H](C)C[C@H](C)/C=C/C=C/C=C/1C", "note": "[Rapamycin]", "values": [{"measurement": "half-life of degradation in solution", "result": "< 10", "unit": "h"}]}]}
